The compounds below were run on Arabidopsis thaliana seed (assay: Seed germination inhibition assay for testing Examples 1-28 and 47-50). Details: 0.01-10.0 ppm in 96-well plates, scored on day 7, relative to (S)-ABA.
Type: in vivo
Design: key to Arabidopsis seed germination inhibition potency: + + + +: The other derivatives were scored by potency relative to S-ABA.; (S)-ABA potency = + + +.; + +: The other derivatives were scored by potency relative to S-ABA.; ++: The other derivatives were scored by potency relative to S-ABA.; +: The other derivatives were scored by potency relative to S-ABA.; −− = no effect
Experimental: Seed Germination Inhibition Assay for Testing Examples 1-28 and 47-50 To determine the germination inhibition potency of the (S)-ABA derivatives, germination assays were performed with the model plant Arabidopsis thaliana. Arabidopsis seed was sterilized by shaking for five minutes in 200-proof ethanol, and followed by shaking for five minutes in a 10% bleach solution. The seeds were then washed five times in sterile, distilled, de-ionized water and suspended in 0.1% phytoagar. The tubes containing the seeds were wrapped in aluminum foil and stratified at 4° C. for two days. All compounds were tested at eight concentrations of 0 (DMSO control), 0.01, 0.03, 0.1, 0.3, 1.0, 3.0, and 10.0 ppm in 96-well plates. Each plate contained eight replicates of each concentration of the test compound and eight replicates of (S)-ABA at 0.1 ppm as the positive control. As an additional set of controls, each run of the assay also contained one plate dosed with (S)-ABA covering a range of concentrations up to 10 ppm. For each compound, 10× stock solutions corresponding to each of the tested concentrations were prepared in distilled and de-ionized water containing 5% DMSO. The stock test solution (10 μL) was added to each well according to the scheme described above, and 90 μL of ½× Murashige and Skoog media containing 1.2% Bactoagar was then added to each well (final DMSO concentration was 0.5%). When the media solidified, ten to fifteen sterile stratified Arabidopsis seeds were distributed into each well using a repeat pipettor. The plates were sealed with surgical tape and placed in a growth chamber running diurnal cycles of 12 hours of light at 24° C. and 12 hours of darkness at 19° C. The plates were scanned on days 3 through 7, and scored on day 7. The 3′-substituted-(S)-ABA derivatives were scored on ability to inhibit germination relative to the potency of (S)-ABA. The results are summarized below in “Table 1: Arabidopsis seed germination inhibition activity of (S)-ABA derivatives.”
In the case of `CC1=C(Cc2cccc3ccccc23)C(=O)CC(C)(C)[C@@]1(O)/C=C/C(C)=C\C(=O)O` [Example 15, (2Z,4E)-5-((S)-1-hydroxy-2,6,6-trimethyl-3-(naphthalen-1-ylmethyl)-4-oxocyclohex-2-en-1-yl)-3-methylpenta-2,4-dienoic acid], the “Arabidopsis seed germination inhibition potency” value is reported as “−−”.
For `CC1=C(Cc2ccc(C)cc2)C(=O)CC(C)(C)[C@@]1(O)/C=C/C(C)=C\C(=O)O` [Example 18, (2Z,4E)-5-((S)-1-hydroxy-2,6,6-trimethyl-3-(4-methylbenzyl)-4-oxocyclohex-2-en-1-yl)-3-methylpenta-2,4-dienoic acid], the “Arabidopsis seed germination inhibition potency” value was “−−”.
With `CC1=C(CC(=O)N(C)C)C(=O)CC(C)(C)[C@@]1(O)/C=C/C(C)=C\C(=O)O` [Example 12, (2Z,4E)-5-((S)-3-(2-(dimethylamino)-2-oxoethyl)-1-hydroxy-2,6,6-trimethyl-4-oxocyclohex-2-en-1-yl)-3-methylpenta-2,4-dienoic acid] the “Arabidopsis seed germination inhibition potency” value was “−−”.
For `CC1=C(Cc2ccc(Cl)cc2)C(=O)CC(C)(C)[C@@]1(O)/C=C/C(C)=C\C(=O)O` [Example 25, (2Z,4E)-5-((S)-3-(4-chlorobenzyl)-1-hydroxy-2,6,6-trimethyl-4-oxocyclohex-2-en-1-yl)-3-methylpenta-2,4-dienoic acid], the “Arabidopsis seed germination inhibition potency” value was “−−”.
For `CCCC1=C(C)[C@](O)(/C=C/C(C)=C\C(=O)O)C(C)(C)CC1=O` [Example 3, (2Z,4E)-5-((S)-1-hydroxy-2,6,6-trimethyl-4-oxo-3-propylcyclohex-2-en-1-yl)-3-methylpenta-2,4-dienoic acid], the “Arabidopsis seed germination inhibition potency” value was “+ +”.
With `CCC1=C(C)[C@](O)(/C=C/C(C)=C\C(=O)O)C(C)(C)CC1=O` [Example 2, (2Z,4E)-5-((S)-3-ethyl-1-hydroxy-2,6,6-trimethyl-4-oxocyclohex-2-en-1-yl)-3-methylpenta-2,4-dienoic acid] the “Arabidopsis seed germination inhibition potency” value was “+ + +”.
`CC1=C(Cc2cccc(C)c2)C(=O)CC(C)(C)[C@@]1(O)/C=C/C(C)=C\C(=O)O` [Example 17, (2Z,4E)-5-((S)-1-hydroxy-2,6,6-trimethyl-3-(3-methylbenzyl)-4-oxocyclohex-2-en-1-yl)-3-methylpenta-2,4-dienoic acid] was tested, and the “Arabidopsis seed germination inhibition potency” value was “−−”.
For `CC1=C(CC(=O)O)C(=O)CC(C)(C)[C@@]1(O)/C=C/C(C)=C\C(=O)O` [Example 10, (2Z,4E)-5-((S)-3-(carboxymethyl)-1-hydroxy-2,6,6-trimethyl-4-oxocyclohex-2-en-1-yl)-3-methylpenta-2,4-dienoic acid], the “Arabidopsis seed germination inhibition potency” value was “−−”.
In the case of `CC1=C(Cc2ccc3ccccc3c2)C(=O)CC(C)(C)[C@@]1(O)/C=C/C(C)=C\C(=O)O` [Example 14, (2Z,4E)-5-((S)-1-hydroxy-2,6,6-trimethyl-3-(naphthalen-2-ylmethyl)-4-oxocyclohex-2-en-1-yl)-3-methylpenta-2,4-dienoic acid], the “Arabidopsis seed germination inhibition potency” value is reported as “−−”.
With `C#CCC1=C(C)[C@](O)(/C=C/C(C)=C\C(=O)O)C(C)(C)CC1=O` [Example 5, (2Z,4E)-5-((S)-1-hydroxy-2,6,6-trimethyl-4-oxo-3-(prop-2-yn-1-yl)cyclohex-2-en-1-yl)-3-methylpenta-2,4-dienoic acid] the “Arabidopsis seed germination inhibition potency” value was “+ + + +”.
In the case of `CCCCC1=C(C)[C@](O)(/C=C/C(C)=C\C(=O)O)C(C)(C)CC1=O` [Example 6, (2Z,4E)-5-((S)-3-butyl-1-hydroxy-2,6,6-trimethyl-4-oxocyclohex-2-en-1-yl)-3-methylpenta-2,4-dienoic acid], the “Arabidopsis seed germination inhibition potency” value is reported as “+”.
With `CC1=C(Cc2nc3ccccc3s2)C(=O)CC(C)(C)[C@@]1(O)/C=C/C(C)=C\C(=O)O` [Example 28, (2Z,4E)-5-((S)-3-(benzo[d]thiazol-2-ylmethyl)-1-hydroxy-2,6,6-trimethyl-4-oxocyclohex-2-en-1-yl)-3-methylpenta-2,4-dienoic acid] the “Arabidopsis seed germination inhibition potency” value was “−−”.
`CCC1=C(C)[C@](O)(/C=C/C(C)=C\C(=O)OC)C(C)(C)CC1=O` [Example 1, (2Z,4E)-methyl 5-((S)-3-ethyl-1-hydroxy-2,6,6-trimethyl-4-oxocyclohex-2-en-1-yl)-3-methylpenta-2,4-dienoate] was tested, and the “Arabidopsis seed germination inhibition potency” value was “+ + +”.
`CC1=C(Cc2ccccc2Cl)C(=O)CC(C)(C)[C@@]1(O)/C=C/C(C)=C\C(=O)O` [Example 24, (2Z,4E)-5-((S)-3-(2-chlorobenzyl)-1-hydroxy-2,6,6-trimethyl-4-oxocyclohex-2-en-1-yl)-3-methylpenta-2,4-dienoic acid] was tested, and the “Arabidopsis seed germination inhibition potency” value was “−−”.
`CCC#CCC1=C(C)[C@](O)(/C=C/C(C)=C\C(=O)O)C(C)(C)CC1=O` [Example 48, (2Z,4E)-5-((S)-1-hydroxy-2,6,6-trimethyl-4-oxo-3-(pent-2-yn-1-yl)cyclohex-2-en-1-yl)-3-methylpenta-2,4-dienoic acid] was tested, and the “Arabidopsis seed germination inhibition potency” value was “+”.
`CC1=C(Cc2cccc(F)c2)C(=O)CC(C)(C)[C@@]1(O)/C=C/C(C)=C\C(=O)O` [Example 20, (2Z,4E)-5-((S)-3-(3-fluorobenzyl)-1-hydroxy-2,6,6-trimethyl-4-oxocyclohex-2-en-1-yl)-3-methylpenta-2,4-dienoic acid] was tested, and the “Arabidopsis seed germination inhibition potency” value was “−−”.
For `CC1=C(Cc2cc(F)cc(F)c2)C(=O)CC(C)(C)[C@@]1(O)/C=C/C(C)=C\C(=O)O` [Example 23, (2Z,4E)-5-((S)-3-(3,5-difluorobenzyl)-1-hydroxy-2,6,6-trimethyl-4-oxocyclohex-2-en-1-yl)-3-methylpenta-2,4-dienoic acid], the “Arabidopsis seed germination inhibition potency” value was “−−”.
With `CC#CCC1=C(C)[C@](O)(/C=C/C(C)=C\C(=O)O)C(C)(C)CC1=O` [Example 47, (2Z,4E)-5-((S)-3-(but-2-yn-1-yl)-1-hydroxy-2,6,6-trimethyl-4-oxocyclohex-2-en-1-yl)-3-methylpenta-2,4-dienoic acid] the “Arabidopsis seed germination inhibition potency” value was “++”.
`COc1cc([N+](=O)[O-])ccc1CC1=C(C)[C@](O)(/C=C/C(C)=C\C(=O)O)C(C)(C)CC1=O` [Example 27, (2Z,4E)-5-((S)-1-hydroxy-3-(2-methoxy-4-nitrobenzyl)-2,6,6-trimethyl-4-oxocyclohex-2-en-1-yl)-3-methylpenta-2,4-dienoic acid] was tested, and the “Arabidopsis seed germination inhibition potency” value was “−−”.
For `CC1=C(C/C=C/C(=O)O)C(=O)CC(C)(C)[C@@]1(O)/C=C/C(C)=C\C(=O)O` [Example 49, (2Z,4E)-5-((S)-3-((E)-3-carboxyallyl)-1-hydroxy-2,6,6-trimethyl-4-oxocyclohex-2-en-1-yl)-3-methylpenta-2,4-dienoic acid], the “Arabidopsis seed germination inhibition potency” value was “−−”.
`CC1=C(CCCCO)C(=O)CC(C)(C)[C@@]1(O)/C=C/C(C)=C\C(=O)O` [Example 7, (2Z,4E)-5-((S)-1-hydroxy-3-(4-hydroxybutyl)-2,6,6-trimethyl-4-oxocyclohex-2-en-1-yl)-3-methylpenta-2,4-dienoic acid] was tested, and the “Arabidopsis seed germination inhibition potency” value was “−−”.
With `COc1cccc(CC2=C(C)[C@](O)(/C=C/C(C)=C\C(=O)O)C(C)(C)CC2=O)c1` [Example 26, (2Z,4E)-5-((S)-3-(3-methoxybenzyl)-1-hydroxy-2,6,6-trimethyl-4-oxocyclohex-2-en-1-yl)-3-methylpenta-2,4-dienoic acid] the “Arabidopsis seed germination inhibition potency” value was “−−”.
For `CC1=C(Cc2ccccc2C)C(=O)CC(C)(C)[C@@]1(O)/C=C/C(C)=C\C(=O)O` [Example 16, (2Z,4E)-5-((S)-1-hydroxy-2,6,6-trimethyl-3-(2-methylbenzyl)-4-oxocyclohex-2-en-1-yl)-3-methylpenta-2,4-dienoic acid], the “Arabidopsis seed germination inhibition potency” value was “−−”.
In the case of `CC1=C(Cc2ccc(F)c(F)c2)C(=O)CC(C)(C)[C@@]1(O)/C=C/C(C)=C\C(=O)O` [Example 22, (2Z,4E)-5-((S)-3-(3,4-difluorobenzyl)-1-hydroxy-2,6,6-trimethyl-4-oxocyclohex-2-en-1-yl)-3-methylpenta-2,4-dienoic acid], the “Arabidopsis seed germination inhibition potency” value is reported as “−−”.
In the case of `CC1=C(Cc2ccccc2F)C(=O)CC(C)(C)[C@@]1(O)/C=C/C(C)=C\C(=O)O` [Example 19, (2Z,4E)-5-((S)-3-(2-fluorobenzyl)-1-hydroxy-2,6,6-trimethyl-4-oxocyclohex-2-en-1-yl)-3-methylpenta-2,4-dienoic acid], the “Arabidopsis seed germination inhibition potency” value is reported as “−−”.
In the case of `CC1=C(C/C=C/c2ccccc2)C(=O)CC(C)(C)[C@@]1(O)/C=C/C(C)=C\C(=O)O` [Example 50, (2Z,4E)-5-((S)-3-cinnamyl-1-hydroxy-2,6,6-trimethyl-4-oxocyclohex-2-en-1-yl)-3-methylpenta-2,4-dienoic acid], the “Arabidopsis seed germination inhibition potency” value is reported as “+”.

Same assay, conditions: Arabidopsis seed germination
For `CCC1=C(C)[C@](O)(/C=C/C(C)=C\C(=O)O)C(C)(C)CC1=O` [Example 2, (2Z,4E)-5-((S)-3-ethyl-1-hydroxy-2,6,6-trimethyl-4-oxocyclohex-2-en-1-yl)-3-methylpenta-2,4-dienoic acid], the “germination inhibition potency compared to (S)-ABA (in words)” value was “just as effective as (S)-ABA”.
In the case of `C#CCC1=C(C)[C@](O)(/C=C/C(C)=C\C(=O)O)C(C)(C)CC1=O` [Example 5, (2Z,4E)-5-((S)-1-hydroxy-2,6,6-trimethyl-4-oxo-3-(prop-2-yn-1-yl)cyclohex-2-en-1-yl)-3-methylpenta-2,4-dienoic acid], the “germination inhibition potency compared to (S)-ABA (in words)” value is reported as “more potent than (S)-ABA”.
`CCC1=C(C)[C@](O)(/C=C/C(C)=C\C(=O)OC)C(C)(C)CC1=O` [Example 1, (2Z,4E)-methyl 5-((S)-3-ethyl-1-hydroxy-2,6,6-trimethyl-4-oxocyclohex-2-en-1-yl)-3-methylpenta-2,4-dienoate] was tested, and the “germination inhibition potency compared to (S)-ABA (in words)” value was “just as effective as (S)-ABA”.

From US9781930B2, “3′-substituted-abscisic acid derivatives” (Valent BioSciences Corporation, priority 2014, dated 2017)
